Row | melting point | SMILES
1 | 117 to 120 °C | CC/C(=N\OCCOc1cccc(CC(=O)O)c1)c1ccc(-c2cccs2)cc1 [14(30), (3-{2-[({(1E)-1-[4-(2-thienyl)phenyl]propylidene}amino)oxy]ethoxy}phenyl)acetic acid]
2 | 143.5 to 147 °C | CC/C(=N\OCCOc1cccc(CC(=O)O)c1)c1ccc(-n2cccn2)cc1 [14(35), (3-{2-[({(1E)-1-[4-(1H-pyrazol-1-yl)phenyl]propylidene}amino)oxy]ethoxy}phenyl)acetic acid]

Reference: patent publication US20070167490A1, “Imino ether derivative compounds and drugs containing the compounds as the active ingredient” (Ono Pharmaceutical Co Ltd, priority 2003, published 2007)
